Data: patent publication US5744339A, “Thiomethylene group-containing aldehyde cysteine and serine protease inhibitors” (Cephalon, Inc., priority 1996, dated 1998)

How the values were obtained:
Type in all cases: biochemical
[1] = target: T1, cathepsin L (Homo sapiens, UniProt P07711); assay: Inhibition of cathepsin L (cysteine protease) activity; details: 0.006 mM Cbz-Phe-Arg-AMC, pH 6.0; read-out: Cat L IC50
T1 construct: purchased Calbiochem 219402
Description: (§1) To evaluate inhibitory activity, stock solutions (40 times concentrated) of each compound to be tested were prepared in 100% anhydrous DMSO and 5 μL of each inhibitor preparation were aliquoted into each of three wells of a 96-well plate. Calpain I, prepared by a modification of the method of W. J. Lee et al. (Biochem. Internatl. 22: 163-171 (1990)), was diluted into assay buffer (i.e., 50 mM Tris, 50 mM NaCl, 1 mM EDTA, 1 mM EGTA, and 5 mM β-mercaptoethanol, pH 7.5 including 0.2 mM Succ-Leu-Tyr-MNA) and 175 μL aliquoted into the same wells containing the independent inhibitor stocks, as well as to positive control wells containing 5 μL DMSO, but no compound. To start the reaction, 20 μL of 50 mM CaCl2 in assay buffer was added to all wells of the plate, excepting three, which were used as background signal baseline controls. Substrate hydrolysis was monitored every 5 minutes for a total of 30 minutes using a Fluoroskan II fluorescence plate reader. Substrate hydrolysis in the absence of inhibitor was linear for up to 15 minutes.
(§2) Inhibition of calpain I activity was calculated as the percent decrease in the rate of substrate hydrolysis in the presence of inhibitor relative to the rate in its absence. Comparison between the inhibited and control rates was made within the linear range for substrate hydrolysis. For screening, compounds were tested at 10 μm. Compounds having 50% inhibition at 10 μM were considered active. The IC50s of inhibitors (i.e., the concentration yielding 50% inhibition) were determined from the percent decrease in the rates of substrate hydrolysis in the presence of five to seven different concentrations of the test compound. The results were plotted as % inhibition versus log inhibitor concentration and the IC50 was calculated from linear regression of the data.
Additionally, the order of reagents added to the plate was altered because both enzymes are constitutively active. Following inhibitor addition to the plates, appropriate 2× concentrated stock dilutions of the enzyme preparations were made in assay buffer and 10 ul added to each well.
The assay was initiated by addition of 100 ul of 2× concentrated stock dilution of substrate in assay buffer. Substrate hydrolysis was monitored using a Fluoroskan II (ex=390 nm; em=460 nm).

[2] = target: T2, Calpain I (Homo sapiens, UniProt P07384); assay: Inhibition of calpain I (cysteine protease) activity; details: 0.2 mM Succ-Leu-Tyr-MNA, pH 7.5, CaCl2 start
T2 construct: made in house
T2 sequence (P07384 1-714): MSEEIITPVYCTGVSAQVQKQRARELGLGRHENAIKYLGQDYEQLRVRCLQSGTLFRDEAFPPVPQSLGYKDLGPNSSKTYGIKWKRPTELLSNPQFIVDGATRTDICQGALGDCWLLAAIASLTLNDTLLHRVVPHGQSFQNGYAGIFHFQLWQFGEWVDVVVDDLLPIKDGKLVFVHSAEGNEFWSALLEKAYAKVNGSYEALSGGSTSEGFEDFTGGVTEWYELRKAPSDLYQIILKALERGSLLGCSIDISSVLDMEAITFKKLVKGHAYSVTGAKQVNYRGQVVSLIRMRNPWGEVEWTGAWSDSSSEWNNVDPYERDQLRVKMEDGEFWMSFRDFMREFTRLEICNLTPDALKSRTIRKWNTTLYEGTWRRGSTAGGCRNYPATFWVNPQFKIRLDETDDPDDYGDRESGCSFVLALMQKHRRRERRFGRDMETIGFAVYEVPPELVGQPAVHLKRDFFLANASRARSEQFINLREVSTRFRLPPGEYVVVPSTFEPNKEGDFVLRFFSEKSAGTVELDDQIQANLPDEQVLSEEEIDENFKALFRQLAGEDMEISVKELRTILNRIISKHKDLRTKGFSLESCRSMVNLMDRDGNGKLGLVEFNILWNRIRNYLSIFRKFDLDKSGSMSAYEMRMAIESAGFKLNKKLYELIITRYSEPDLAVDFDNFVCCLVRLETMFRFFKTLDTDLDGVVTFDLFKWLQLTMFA
T2 sequence (P04632 1-268 partner): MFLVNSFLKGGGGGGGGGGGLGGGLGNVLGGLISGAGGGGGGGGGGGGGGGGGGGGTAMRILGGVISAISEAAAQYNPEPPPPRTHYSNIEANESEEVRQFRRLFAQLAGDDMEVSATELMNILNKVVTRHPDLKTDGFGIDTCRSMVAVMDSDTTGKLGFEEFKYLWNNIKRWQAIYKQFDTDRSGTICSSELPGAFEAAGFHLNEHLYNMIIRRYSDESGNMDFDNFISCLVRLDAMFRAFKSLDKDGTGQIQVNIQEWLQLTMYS
Description: (§3) To evaluate inhibitory activity, stock solutions (40 times concentrated) of each compound to be tested were prepared in 100% anhydrous DMSO and 5 μL of each inhibitor preparation were aliquoted into each of three wells of a 96-well plate. Calpain I, prepared by a modification of the method of W. J. Lee et al. (Biochem. […] To start the reaction, 20 μL of 50 mM CaCl2 in assay buffer was added to all wells of the plate, excepting three, which were used as background signal baseline controls. Substrate hydrolysis was monitored every 5 minutes for a total of 30 minutes using a Fluoroskan II fluorescence plate reader. Substrate hydrolysis in the absence of inhibitor was linear for up to 15 minutes. Inhibition of calpain I activity was calculated as the percent decrease in the rate of substrate hydrolysis in the presence of inhibitor relative to the rate in its absence. Comparison between the inhibited and control rates was made within the linear range for substrate hydrolysis. For screening, compounds were tested at 10 μm. Compounds having 50% inhibition at 10 μM were considered active. […] The results were plotted as % inhibition versus log inhibitor concentration and the IC50 was calculated from linear regression of the data.

[3] = target: T3, α-chymotrypsin (Bos taurus, UniProt P00766); assay: Inhibition of α-chymotrypsin (serine protease) activity; details: 10 μM inhibitor; 0.03 mM SuccAla-Ala-Pro-Phe-AMC, pH 7.5; read-out: Chymotrypsin % I @ 10 μM
T3 construct: purchased Sigma Chem. Co. C-3142
Description: as §1, §2
(§4) Additionally,because α-chymotrypsin is not a calcium sensitive enzyme and is constitutively active, following addition of inhibitor stocks to the 96 well plates, 100 μl of a 2-fold concentrated stock of enzyme in dilution buffer was first added and the reaction started by addition of 10 μl of a 2-fold concentrated stock of substrate in assay buffer. Substrate hydrolysis was monitored every 5 minutes up to 30 minutes using a Fluoroskan II ([…]). The result is expressed as inhibition of α-chymotrypsin at 10 μM.

[4] = target: T4, cathepsin B (Homo sapiens, UniProt P07858); assay: Inhibition of cathepsin B (cysteine protease) activity; details: 0.1 mM Cbz-Phe-Arg-AMC, pH 6.0; read-out: Cat B IC50
T4 construct: purchased Calbiochem 219364
Description: as §3, with “data. […] Additionally, the order of reagents added to the plate was altered because both enzymes are constitutively active. Following inhibitor addition to the plates, appropriate 2× concentrated stock dilutions of the enzyme preparations were made in assay buffer and 10 ul added to each well. The assay was initiated by addition of 100 ul of 2× concentrated stock dilution of substrate in assay buffer. Substrate hydrolysis was monitored using a Fluoroskan II (ex=390 nm; em=460 nm).” for “data.”

[5] = target: T5, thrombin (Homo sapiens, UniProt P00734); assay: Inhibition of thrombin (serine protease) activity; details: 10 μM inhibitor; 25 μM Bz-Phe-Val-Arg-AMC, pH 7.5; read-out: Thrombin % I @ 10 μM
T5 construct: purchased Sigma Chem. Co. T-7009
Description: as §4
Inhibition of thrombin (Sigma Chem. Co. Cat. #T-7009) was evaluated as described for chymotrypsin except that the assay was performed in 50 mM Tris, 10 mM CaCl2, pH 7.5 and the substrate was 25 μM Bz-Phe-Val-Arg-AMC (Bachem cat#I-1080).

T1 sequence (P07711 114-288 limits assumed): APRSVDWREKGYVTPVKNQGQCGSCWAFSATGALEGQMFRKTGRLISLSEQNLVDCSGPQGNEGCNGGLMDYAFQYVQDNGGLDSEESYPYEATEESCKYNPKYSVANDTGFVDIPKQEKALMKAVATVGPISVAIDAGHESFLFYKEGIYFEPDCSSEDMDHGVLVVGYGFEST
T1 sequence (P07711 292-333 limits assumed): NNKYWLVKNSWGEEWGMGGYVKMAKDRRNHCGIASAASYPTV

| IC50 [1] [nM] | IC50 [2] [nM] | inhibition at 10 µM [3] [%] | IC50 [4] [nM] | inhibition at 10 µM [5] [%] | SMILES |
| --- | --- | --- | --- | --- | --- |
| 3 | 50 | 11 | 150 | 1 | CC(C)C[C@H](CCS(=O)(=O)c1ccc2ccccc2c1)C(=O)N[C@H](C=O)CC(C)C [Compound 10, 2-Naphthylsulfonyl--CH2 CH2 CH(iBu)CO--Leu--H] |
| 32 | 500 | 12 | 4500 | 2 | CC(C)C[C@@H](CCS(=O)(=O)c1ccc2ccccc2c1)C(=O)N[C@H](C=O)CC(C)C [Compound 9, 2-Naphthylsulfonyl--CH2 CH2 CH(iBu)CO--Leu--H] |
| 3 | 30 | 18 | 60 | 2 | CC(C)CC(CC[S+]([O-])c1ccc2ccccc2c1)C(=O)N[C@H](C=O)CC(C)C (some centres unmarked) [Compound 13, 2-Naphthyl--S(O)--CH2 CH2 CH(iBu)CO--Leu--H] |
| 8 | 75 | 11 | 60 | 5 | CC(C)CC(CCSc1ccc2ccccc2c1)C(=O)N[C@H](C=O)CC(C)C (some centres unmarked) [Compound 11, 2-Naphthyl--SCH2 CH2 CH(iBu)CO--Leu--H] |
